Reference: PMC12305873, “Chlorinated biscoumarins inhibit chikungunya virus replication in cell-based and animal models” (Emerging Microbes & Infections, 2025)
Entries after “also recorded” stand apart in the source; their conditions may differ.

Tests used:
Sprague Dawley rats = assay: ALT and Cr levels in rat plasma samples of the PK study; details: single oral 250 mg/kg, plasma at 24, 48, 72 h
CHIKV [1] = assay: CHIKV plaque assay in Vero cells; details: Chikungunya virus, read-out: EC50, CHIKV inhibition
CHIKV [2] = assay: In vivo anti-CHIKV efficacy, CHIKV-induced arthritis mouse model; details: for PMN infiltration in footpad (H&E), day 1 / PMN infiltration in footpad (H&E), days 2 and 3: compounds single oral 250 mg/kg, ribavirin 50 mg/kg BID IP
[3] = Pharmacokinetic study in mice
C57BL/6 mice [4] = assay: Single-dose acute oral toxicity in mice
[5] = Pharmacokinetic study in rats
[6] = Cytotoxicity assay alongside the replicon assay; details: hamster
CHIKV [7] = assay: Time-of-addition and time-of-removal assay in Vero cells; details: 10 µM, MOI 1
[8] = system: dengue virus NS5 methyltransferase (MTase); parameters: method as in Loeanurit et al., under review; details: targeting the SAM binding site; ref Loeanurit et al., under review; cited from earlier work
CHIKV [9] = assay: Cell-based anti-attachment assay in Vero cells; details: 10 µM
CHIKV [10] = assay: CHIKV plaque assay in HEK 293 cells; details: Chikungunya virus, HEK293, read-out: EC50, CHIKV inhibition
C57BL/6 mice [11] = assay: Multiple-dose toxicity in mice; details: for Activity scores / behaviour / Creatinine / Histopathology of liver tissues / Histopathology of renal tissues: compound 3 250 mg/kg oral BID 3 days, ribavirin 50 mg/kg BID I.P.
CHIKV replicon = CHIKV replicon inhibition assay (Renilla luciferase) in BHK-21 cells; details: Chikungunya virus, BHK-21, 24 h, read-out: EC50, CHIKV replicon inhibition (printed IC50 in Figure 2g,h and b75)
CHIKV nsP1 = CHIKV nsP1 (Chikungunya virus, UniProt Q8JUX6); assay: MTase-Glo methyltransferase assay; details: At 50 µM (method: 100 µM), purified CHIKV nsP1
CHIKV nsP1, sequence (Q8JUX6 1-535): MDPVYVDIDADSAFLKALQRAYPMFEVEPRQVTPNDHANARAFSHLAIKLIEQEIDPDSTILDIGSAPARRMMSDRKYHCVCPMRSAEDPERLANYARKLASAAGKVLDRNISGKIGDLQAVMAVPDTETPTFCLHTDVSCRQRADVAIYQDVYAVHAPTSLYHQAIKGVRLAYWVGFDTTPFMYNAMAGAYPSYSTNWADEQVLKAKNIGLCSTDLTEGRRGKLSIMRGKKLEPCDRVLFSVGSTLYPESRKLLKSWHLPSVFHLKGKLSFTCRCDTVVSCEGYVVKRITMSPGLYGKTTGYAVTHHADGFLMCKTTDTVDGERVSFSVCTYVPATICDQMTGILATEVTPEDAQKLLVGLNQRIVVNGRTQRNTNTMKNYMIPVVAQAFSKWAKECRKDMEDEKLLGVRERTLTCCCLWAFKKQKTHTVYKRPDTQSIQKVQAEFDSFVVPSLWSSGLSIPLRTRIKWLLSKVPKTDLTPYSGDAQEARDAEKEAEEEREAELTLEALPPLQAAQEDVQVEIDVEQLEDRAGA

[12] = C57BL/6, mouse, in vivo, po, 250 mg/kg
[13] = mice, oral 250 mg/kg, mean ± SD
[14] = single oral dose 250 or 500 mg/kg
[15] = Sprague Dawley, rat, in vivo, po, 250 mg/kg
[16] = rat, oral 250 mg/kg, mean ± SD, 250 mg/kg

O=c1oc2ccccc2c(O)c1C(c1cccc(Cl)c1)c1c(O)c2ccccc2oc1=O [compound 3, 3,3′-((3-chlorophenyl)methylene)bis(4-hydroxy-2H-chromen-2-one)]
ALT and Cr levels (Sprague Dawley rats): within normal limits
EC50 (CHIKV [1]): 2.85 ± 0.42 µM
Body weight (CHIKV [2]; CHIKV-infected mice, single oral 250 mg/kg): greater body weight loss than other groups
PMN infiltration in footpad (H&E), day 1 (CHIKV [2]): reduced PMN infiltration on day 1
PMN infiltration in footpad (H&E), days 2 and 3 (CHIKV [2]): PMN infiltration persisting at moderate levels
CHIKV titres in footpad tissues, plaque assay, day 2 post-infection (CHIKV [2]; single oral 250 mg/kg): significantly reduced CHIKV titres in footpad tissues
Footpad swelling, tissue viral loads and systemic viremia (discussion summary) (CHIKV [2]; single oral 250 mg/kg): significantly reduced footpad swelling, viral loads in infected tissues, and systemic viremia
Infectious viral titres in footpad tissue, plaque titration, day 3 (CHIKV [2]; single oral 250 mg/kg): maintaining efficacy through day 3 howbeit not significantly
Systemic viremia (plasma CHIKV titres, plaque assay) (CHIKV [2]; single oral 250 mg/kg): no marked reduction in systemic viremia
Viral RNA levels in footpad tissue (RT-qPCR) (CHIKV [2]; single oral 250 mg/kg): marked reduction by day 3
Foot swelling and activity vs vehicle group (CHIKV [2]; single oral 250 mg/kg at 24 h after infection, transient, not significantly different from vehicle): moderate improvement in foot swelling and activity
AUC [3, 12]: 909 µg·h/mL
AUC(0-inf) [3, 12]: 909 ± 835 µg·h/mL
AUC(0-t) [3, 12]: 909 ± 835 µg·h/mL
CL/F [3, 12]: 1.1 L/h/kg
MRT inf [3, 12]: 10.6 ± 0.728 h
MRT last [3, 12]: 10.5 ± 0.646 h
Tmax [3, 12]: 10 ± 3.46 h
Cmax ([3]; C57BL/6, mouse, in vivo, po, 250 mg/kg, Cmax, mice, oral 250 mg/kg, mean ± SD): 68.9 ± 64.1 µg/mL
half-life ([3]; C57BL/6, mouse, in vivo, po, 250 mg/kg, HL (half-life), mice, oral 250 mg/kg, mean ± SD): 4.16 h
Cmax ([3]; C57BL/6, mouse, in vivo, po, 250 mg/kg, Peak plasma concentration (Cmax), mice, oral 250 mg/kg): 68.9 µg/mL
Time within which plasma concentration fell below EC90 and EC50 ([3]; mice, oral 250 mg/kg): 24 to 48 h
AUC_% Extrap_obs [3, 13]: 0.124 ± 0.185%
Vz_F_obs [3, 13]: 7.963 ± 11.841 L/kg
HL (half-life) ([3]; mice, oral 250 mg/kg, mean ± SD, 250 mg/kg): 4.163 ± 0.941 h
Serum ALT on day 1 (C57BL/6 mice [4]; single oral dose 500 mg/kg, not statistically significant, resolved): slight increase
Activity scores (C57BL/6 mice [4]; [14]): no significant difference in activity scores
Kidney histology (C57BL/6 mice [4]; [14]): remained within normal limits
Liver (ALT) and kidney (creatinine) biomarkers (C57BL/6 mice [4]; single oral dose 250 or 500 mg/kg, days 1, 3, 7): remained within normal limits
Survival and clinical signs over 7 days (C57BL/6 mice [4]; single oral dose 250 or 500 mg/kg, mice): All animals survived
Liver histology (C57BL/6 mice [4]; single oral dose, day 1, also seen in vehicle-treated animals): Mild, transient hepatocellular vacuolization
Tolerability of a single oral dose (C57BL/6 mice [4]; up to 500 mg/kg, mice): well tolerated
AUC [5, 15]: 1090 µg·h/mL
AUC(0-inf) [5, 15]: 1100 ± 633 µg·h/mL
AUC(0-t) [5, 15]: 1090 ± 646 µg·h/mL
CL/F [5, 15]: 0.339 L/h/kg
MRT inf [5, 15]: 14.5 ± 5.73 h
MRT last [5, 15]: 12.9 ± 5.73 h
Cmax ([5]; Sprague Dawley, rat, in vivo, po, 250 mg/kg, Cmax, oral 250 mg/kg, mean ± SD): 80.7 ± 39.9 µg/mL
half-life ([5]; Sprague Dawley, rat, in vivo, po, 250 mg/kg, HL (half-life), oral 250 mg/kg, mean ± SD): 7.92 h
Cmax ([5]; Sprague Dawley, rat, in vivo, po, 250 mg/kg, Peak plasma concentration (Cmax), rats, oral 250 mg/kg): 80.7 µg/mL
Tmax ([5]; Sprague Dawley, rat, in vivo, po, 250 mg/kg, Tmax, oral 250 mg/kg, mean ± SD): 9.33 h
AUC_% Extrap_obs ([5]; rat, oral 250 mg/kg, mean ± SD): 2.128 ± 3.659%
Vz_F_obs ([5]; rat, oral 250 mg/kg, mean ± SD): 5.672 ± 8.054 L/kg
HL (half-life) [5, 16]: 7.922 ± 6.558 h
Tmax [5, 16]: 9.333 ± 2.309 h
Time within which plasma concentration fell below EC90 and EC50 ([5]; rats, oral 250 mg/kg): 24 to 48 h
CC50 [6]: 100.5 ± 0.11 µM
Time-of-addition time-points significantly different from DMSO control (CHIKV [7]): 3–9 hpi
Viral replication in time-of-removal (TOR) assay (CHIKV [7]): viral replication resumed upon compound removal at 12 hpi
Viral titres in time-of-addition (TOA) assay (CHIKV [7]): significantly reduced viral titres when added up to 9 hpi; also recorded: persisted when added as late as 12 hours post-infection
Inhibition of dengue virus NS5 methyltransferase [8]: inhibitors of the dengue virus NS5 methyltransferase (MTase)
CHIKV inhibition, post-incubation or throughout (CHIKV [9]; Vero, MOI 0.1, 24 hpi): robust antiviral activity was observed
CHIKV inhibition, pre-treatment, pre-incubation or co-incubation (CHIKV [9]; Vero, MOI 0.1, 24 hpi): Neither compound exhibited significant inhibition
Effect of compound pre-treatment on viral replication (CHIKV [9]; cells treated 1 h before virus): enhanced the viral replication
EC50 (CHIKV [10]): 3.08 ± 0.45 µM
Serum ALT by day 3 vs vehicle and ribavirin groups (C57BL/6 mice [11]; 250 mg/kg oral BID for 3 days): markedly elevated
Activity scores / behaviour (C57BL/6 mice [11]): activity scores increased by day 2
Creatinine (C57BL/6 mice [11]): remained within normal limits
Histopathology of liver tissues (C57BL/6 mice [11]): hepatocellular vacuolization and mononuclear infiltration
Histopathology of renal tissues (C57BL/6 mice [11]): proximal tubular edema and vacuolization
EC50 (CHIKV replicon): 6.64 ± 0.86 µM
nsP1 methyltransferase enzymatic activity vs DMSO control (CHIKV nsP1): significantly inhibited enzymatic activity

NC(=O)c1ncn([C@@H]2O[C@H](CO)[C@@H](O)[C@H]2O)n1 [ribavirin, Ribavirin, reference compound]
PMN infiltration in footpad (H&E), day 1 (CHIKV [2]): reduced PMN infiltration on day 1
PMN infiltration in footpad (H&E), days 2 and 3 (CHIKV [2]): PMN infiltration persisting at moderate levels
Activity scores / behaviour (C57BL/6 mice [11]): maintained normal behaviour and activity
Creatinine (C57BL/6 mice [11]): remained within normal limits
Histopathology of liver tissues (C57BL/6 mice [11]): No pathological abnormalities were observed
Histopathology of renal tissues (C57BL/6 mice [11]): No pathological abnormalities were observed
